In ChEMBL document CHEMBL1201862, “PubChem BioAssay data set” (2004):
Active and inactive are the calls of the source.

How the values were obtained:
Troponin, cardiac muscle = Troponin, cardiac muscle (Homo sapiens, UniProt P19429+P45379+P63316); assay: Fluorescence-based biochemical high throughput dose response assay for activators of the calcium sensitivity of cardiac Regulated Thin Filaments (RTF). [Related pubchem assays (depositor defined):AID493008, AID493018, AID504382, AID504383]; type: protein-complex assay
Mu-type opioid receptor = Mu-type opioid receptor (Homo sapiens, UniProt P35372); assay: HTS Image-Based Screen for Agonists of the MOR Receptor. [Related pubchem assays (depositor defined):AID1777, AID1785, AID1786, AID2133]; type: functional;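 note: imaging of beta-arrestin GFP recruitment into spots after receptor activation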
Sequence of Mu-type opioid receptor (P35372 whole entry): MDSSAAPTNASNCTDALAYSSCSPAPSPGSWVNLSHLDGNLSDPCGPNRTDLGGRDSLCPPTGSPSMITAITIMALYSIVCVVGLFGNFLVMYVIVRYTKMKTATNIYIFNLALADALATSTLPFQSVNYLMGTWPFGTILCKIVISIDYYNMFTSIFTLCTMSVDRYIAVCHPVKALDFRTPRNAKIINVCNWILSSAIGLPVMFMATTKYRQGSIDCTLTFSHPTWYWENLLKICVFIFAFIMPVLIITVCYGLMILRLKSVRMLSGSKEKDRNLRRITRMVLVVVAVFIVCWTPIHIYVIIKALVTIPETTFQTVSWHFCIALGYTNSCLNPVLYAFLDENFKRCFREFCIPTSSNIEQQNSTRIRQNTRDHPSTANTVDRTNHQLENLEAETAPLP

[1] = biological target: T1, Kappa-type opioid receptor (Homo sapiens, UniProt P41145); type: functional
T1 sequence (P41145 whole entry): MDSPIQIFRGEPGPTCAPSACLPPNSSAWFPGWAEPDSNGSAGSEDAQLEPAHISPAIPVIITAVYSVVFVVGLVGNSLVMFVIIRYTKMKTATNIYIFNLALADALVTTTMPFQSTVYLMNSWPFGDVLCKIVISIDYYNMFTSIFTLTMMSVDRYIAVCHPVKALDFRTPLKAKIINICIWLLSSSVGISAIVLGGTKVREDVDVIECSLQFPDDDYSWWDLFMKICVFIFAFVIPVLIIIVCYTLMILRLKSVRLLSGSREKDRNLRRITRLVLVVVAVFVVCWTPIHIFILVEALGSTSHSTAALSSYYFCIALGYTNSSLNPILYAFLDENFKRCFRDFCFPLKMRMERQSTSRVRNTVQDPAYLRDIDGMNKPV

[2] = inhibitors of intracellular T. cruzi replication, confirmation, NIH3T3 host cells, beta-gal luminescence (AID 2044); type: functional, cell-based;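 note: intracellular parasites grown in NIH/3T3 mouse fibroblasts as host cells; luminescent beta-galactosidase reporter signal from transgenic T. cruzi replicating inside host cells; inhibitors lower the luminescence signal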
Cytochrome P450 2C9 = Cytochrome P450 2C9 (Homo sapiens, UniProt P11712)
Sequence of Cytochrome P450 2C9 (P11712 whole entry): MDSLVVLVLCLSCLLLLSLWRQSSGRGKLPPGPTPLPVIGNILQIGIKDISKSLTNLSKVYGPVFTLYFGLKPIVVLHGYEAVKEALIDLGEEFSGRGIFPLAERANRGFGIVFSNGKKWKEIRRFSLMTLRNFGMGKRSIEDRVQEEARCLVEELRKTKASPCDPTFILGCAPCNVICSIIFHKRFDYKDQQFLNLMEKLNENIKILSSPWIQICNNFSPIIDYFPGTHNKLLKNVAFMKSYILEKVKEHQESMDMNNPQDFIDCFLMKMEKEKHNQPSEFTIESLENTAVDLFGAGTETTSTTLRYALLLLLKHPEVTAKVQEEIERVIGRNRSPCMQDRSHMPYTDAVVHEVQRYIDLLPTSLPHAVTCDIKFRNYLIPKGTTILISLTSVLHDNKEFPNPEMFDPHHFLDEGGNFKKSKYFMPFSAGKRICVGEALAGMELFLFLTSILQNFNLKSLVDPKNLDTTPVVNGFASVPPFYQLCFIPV

[3] = cytotoxicity toward NIH3T3 fibroblasts, dose response, counter-screen, cell-based, ATP luminescence, mouse fibroblasts (AID 2010); type: functional;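 note: cells exposed to compound for about 90 hours before reading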
[4] = biological target: T1, Kappa-type opioid receptor; type: functional; remark: listed apart in the source
[5] = biological target: T2, Type-1 angiotensin II receptor (Homo sapiens, UniProt P30556); assay: AT1 receptor antagonists, dose response, selectivity assay for APJ receptor antagonist project, cell-based, uHTS hits (AID 463214); type: functional;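 note: antagonist potency against angiotensin II stimulated AT1 response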
T2 sequence (P30556 whole entry): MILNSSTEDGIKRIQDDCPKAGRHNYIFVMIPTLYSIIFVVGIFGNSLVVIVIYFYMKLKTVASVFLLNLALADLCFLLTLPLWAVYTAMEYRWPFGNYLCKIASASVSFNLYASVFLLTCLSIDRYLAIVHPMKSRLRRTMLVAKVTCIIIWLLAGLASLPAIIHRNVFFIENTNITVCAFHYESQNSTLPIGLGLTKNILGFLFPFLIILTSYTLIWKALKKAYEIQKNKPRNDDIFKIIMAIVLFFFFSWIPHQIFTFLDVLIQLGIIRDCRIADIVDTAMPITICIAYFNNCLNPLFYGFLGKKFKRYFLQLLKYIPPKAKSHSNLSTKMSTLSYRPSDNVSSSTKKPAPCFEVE

[6] = HepG2 cell cytotoxicity, dose response, cytotoxicity control for Shn3 inhibitor project, CellTiter-Glo, cherry-picked (AID 624134); type: functional, cell-based
Beta-galactosidase [7] = biological target: T3, Beta-galactosidase (Escherichia coli, UniProt Q8VNN2); assay: PubChem AID 485352; type: functional
T3 sequence (Q8VNN2 whole entry): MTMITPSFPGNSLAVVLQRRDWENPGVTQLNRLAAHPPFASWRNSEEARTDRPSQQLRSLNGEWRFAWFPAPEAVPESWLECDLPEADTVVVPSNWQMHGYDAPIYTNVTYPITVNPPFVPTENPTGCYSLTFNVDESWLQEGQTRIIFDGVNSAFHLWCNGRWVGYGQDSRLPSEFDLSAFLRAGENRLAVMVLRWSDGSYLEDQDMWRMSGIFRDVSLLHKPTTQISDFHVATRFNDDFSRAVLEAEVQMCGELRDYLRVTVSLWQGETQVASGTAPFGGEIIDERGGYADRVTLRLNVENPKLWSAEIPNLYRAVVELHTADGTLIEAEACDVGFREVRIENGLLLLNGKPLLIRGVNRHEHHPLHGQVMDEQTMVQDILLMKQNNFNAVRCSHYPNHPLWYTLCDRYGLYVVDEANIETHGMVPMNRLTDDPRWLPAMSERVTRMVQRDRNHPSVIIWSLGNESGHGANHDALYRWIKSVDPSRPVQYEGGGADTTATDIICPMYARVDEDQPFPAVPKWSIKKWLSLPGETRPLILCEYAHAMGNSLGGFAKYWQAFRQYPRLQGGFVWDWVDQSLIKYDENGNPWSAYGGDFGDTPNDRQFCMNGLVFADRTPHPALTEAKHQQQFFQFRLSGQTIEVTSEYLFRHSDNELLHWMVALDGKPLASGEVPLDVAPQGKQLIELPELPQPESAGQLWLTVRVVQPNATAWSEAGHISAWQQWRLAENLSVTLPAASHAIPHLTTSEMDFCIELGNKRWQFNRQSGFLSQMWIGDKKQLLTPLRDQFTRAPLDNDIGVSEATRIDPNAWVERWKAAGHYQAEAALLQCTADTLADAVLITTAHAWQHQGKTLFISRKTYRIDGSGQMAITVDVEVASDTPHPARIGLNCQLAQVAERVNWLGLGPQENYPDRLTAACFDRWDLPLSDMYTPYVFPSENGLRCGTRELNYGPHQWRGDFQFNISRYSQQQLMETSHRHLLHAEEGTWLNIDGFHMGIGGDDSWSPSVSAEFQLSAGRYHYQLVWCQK

[8] = reduction of Shn3 3'UTR firefly luciferase signal, dose response, Schnurri-3 inhibitor project, cell-based, Clone20 osteoblasts, cherry-pick, set 2 (AID 720490); type: functional;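 note: actives lower the luminescence signal as inhibitors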
[9] = biological target: 26S proteasome non-ATPase regulatory subunit 14 (Homo sapiens, UniProt O00487); assay: inhibition of proteasome subunit RPN11 – biochemical, fluorescence polarization, uHTS hits, confirmation (AID 602368); type: functional
Sequence of 26S proteasome non-ATPase regulatory subunit 14 (O00487 whole entry): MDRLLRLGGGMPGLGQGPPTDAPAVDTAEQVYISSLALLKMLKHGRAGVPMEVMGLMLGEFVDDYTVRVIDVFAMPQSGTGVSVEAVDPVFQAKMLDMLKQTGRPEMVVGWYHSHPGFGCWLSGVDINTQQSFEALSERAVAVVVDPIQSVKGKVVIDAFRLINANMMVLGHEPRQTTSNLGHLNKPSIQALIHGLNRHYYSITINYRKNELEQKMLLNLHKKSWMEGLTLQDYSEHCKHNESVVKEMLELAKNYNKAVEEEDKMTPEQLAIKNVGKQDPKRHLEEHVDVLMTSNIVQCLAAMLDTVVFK

Prothrombin = Prothrombin (Bos taurus, UniProt P00735); assay: thrombin inhibition, dose response, biochemical, fluorescence polarization, uHTS hits (AID 602369); type: functional
[10] = biological target: T4, Delta-type opioid receptor (Homo sapiens, UniProt P41143); assay: HTS Image-Based Screen for Antagonists of the DOR Receptor. [Related pubchem assays (depositor defined):AID1777, AID1785, AID1786, AID2133]; type: functional
T4 sequence (P41143 whole entry): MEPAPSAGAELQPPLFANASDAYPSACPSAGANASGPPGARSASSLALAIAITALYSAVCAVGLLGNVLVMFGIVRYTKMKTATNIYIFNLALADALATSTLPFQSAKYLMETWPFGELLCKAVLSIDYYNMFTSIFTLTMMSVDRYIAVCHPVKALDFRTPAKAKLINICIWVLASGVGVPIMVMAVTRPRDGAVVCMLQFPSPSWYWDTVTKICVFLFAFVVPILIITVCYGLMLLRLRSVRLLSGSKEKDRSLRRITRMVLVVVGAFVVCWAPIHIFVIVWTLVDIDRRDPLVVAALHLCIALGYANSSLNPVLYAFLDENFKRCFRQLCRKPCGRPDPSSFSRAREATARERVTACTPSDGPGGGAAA

[11] = biological target: T4, Delta-type opioid receptor; assay: HTS Image-Based Screen for Agonists of the DOR Receptor. [Related pubchem assays (depositor defined):AID1777, AID1786, AID2133]; type: functional
[12] = biological target: 72 kDa type IV collagenase (Homo sapiens, UniProt P08253); assay: Dose Response validation of uHTS RPN11 inhibitor hits using a MMP-2 Fluorescence assay.; type: functional
Sequence of 72 kDa type IV collagenase (P08253 whole entry): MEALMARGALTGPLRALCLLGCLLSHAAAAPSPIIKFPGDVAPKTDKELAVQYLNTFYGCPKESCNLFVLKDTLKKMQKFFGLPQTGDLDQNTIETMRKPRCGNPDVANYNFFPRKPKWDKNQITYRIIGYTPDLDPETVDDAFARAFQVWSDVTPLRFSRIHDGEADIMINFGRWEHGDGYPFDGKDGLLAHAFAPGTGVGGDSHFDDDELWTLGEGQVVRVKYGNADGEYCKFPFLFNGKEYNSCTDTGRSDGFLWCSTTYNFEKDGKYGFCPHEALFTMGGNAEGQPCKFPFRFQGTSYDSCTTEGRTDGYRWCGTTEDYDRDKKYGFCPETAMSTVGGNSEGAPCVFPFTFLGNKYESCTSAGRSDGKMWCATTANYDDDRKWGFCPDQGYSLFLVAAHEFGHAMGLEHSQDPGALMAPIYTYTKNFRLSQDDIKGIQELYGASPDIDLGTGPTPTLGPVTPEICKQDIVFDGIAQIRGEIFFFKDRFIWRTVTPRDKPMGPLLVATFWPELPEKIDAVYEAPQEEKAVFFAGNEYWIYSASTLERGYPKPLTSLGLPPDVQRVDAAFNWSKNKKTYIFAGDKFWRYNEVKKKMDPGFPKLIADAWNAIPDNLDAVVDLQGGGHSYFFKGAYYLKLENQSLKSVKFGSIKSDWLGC

[13] = Shn3 3'UTR reporter inhibitors, dose response, cell-based, Clone20 osteoblasts, firefly luciferase, cherry-picked (AID 624132); type: functional;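 note: firefly luciferase luminescence from reporter carrying the Shn3 3'UTR in osteoblasts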
Beta-galactosidase [14] = biological target: T3, Beta-galactosidase; type: functional
[15] = biological target: Alkaline phosphatase, placental type (Homo sapiens, UniProt P05187); assay: PLAP enzyme inhibitors, confirmation, biochemical, luminescence (AID 1512); type: functional
Sequence of Alkaline phosphatase, placental type (P05187 whole entry): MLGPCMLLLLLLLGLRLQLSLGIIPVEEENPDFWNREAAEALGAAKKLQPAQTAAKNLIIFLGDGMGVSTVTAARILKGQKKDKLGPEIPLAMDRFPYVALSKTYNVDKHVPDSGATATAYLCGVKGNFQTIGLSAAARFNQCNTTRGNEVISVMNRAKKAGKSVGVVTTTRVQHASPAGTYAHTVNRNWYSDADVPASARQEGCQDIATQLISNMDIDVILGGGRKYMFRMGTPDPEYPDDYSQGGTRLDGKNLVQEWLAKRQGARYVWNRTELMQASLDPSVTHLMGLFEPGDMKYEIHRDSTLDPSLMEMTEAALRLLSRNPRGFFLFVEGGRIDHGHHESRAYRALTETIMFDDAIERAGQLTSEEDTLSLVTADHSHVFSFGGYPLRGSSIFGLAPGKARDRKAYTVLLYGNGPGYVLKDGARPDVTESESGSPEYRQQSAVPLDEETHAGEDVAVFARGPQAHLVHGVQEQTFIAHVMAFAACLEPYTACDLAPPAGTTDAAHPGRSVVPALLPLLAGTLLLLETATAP

Beta-galactosidase [16] = biological target: T3, Beta-galactosidase; assay: beta-galactosidase enzyme inhibitors and activators, dose response, artefact control for CCR6 antagonist project, biochemical, E. coli enzyme, set 3 (AID 504712); type: functional
[17] = biological target: Peroxisome proliferator-activated receptor gamma/Nuclear receptor corepressor 2 (Homo sapiens, UniProt P37231+Q9Y618); type: functional
[18] = biological target: Photoreceptor-specific nuclear receptor (Homo sapiens, UniProt Q9Y5X4); type: functional;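 note: potency for compounds that break the NR2E3 corepressor complex and count as activators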
Sequence of Photoreceptor-specific nuclear receptor (Q9Y5X4 whole entry): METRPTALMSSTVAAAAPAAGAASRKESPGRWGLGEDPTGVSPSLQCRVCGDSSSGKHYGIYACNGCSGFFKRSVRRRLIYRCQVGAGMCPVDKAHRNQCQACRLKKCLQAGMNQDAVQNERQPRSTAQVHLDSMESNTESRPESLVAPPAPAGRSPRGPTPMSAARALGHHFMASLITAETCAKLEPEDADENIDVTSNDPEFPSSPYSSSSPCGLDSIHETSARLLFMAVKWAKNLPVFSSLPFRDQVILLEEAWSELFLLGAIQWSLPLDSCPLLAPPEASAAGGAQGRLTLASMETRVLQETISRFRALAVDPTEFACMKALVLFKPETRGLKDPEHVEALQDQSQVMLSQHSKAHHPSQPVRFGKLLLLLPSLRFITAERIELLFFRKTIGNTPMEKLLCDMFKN

Which EC50 (Troponin, cardiac muscle) does the source give for `N=C1c2ccccc2CN1c1ccc(S(=O)(=O)N2CCCCC2)cc1` here?
The EC50 was > 71.5 µM (inactive).

For `Cc1cccc(CSc2cccc3cccnc23)c1`, which EC50 (Mu-type opioid receptor) is on record?
The EC50 was > 32 µM (inactive).

And the IC50 [1]?
Its IC50 is greater than 32 µM.

What about the EC50 [2] of the same compound?
The EC50 was 307 nM (active).

And the AC50 (Cytochrome P450 2C9)?
The AC50 was “inconclusive”.

And the EC50 [3]?
The EC50 was 9.65 µM (active).

And the IC50 [4]?
The IC50 was 8.68 µM (active).

What about the IC50 [5] of the same compound?
Its IC50 is 10.1 µM (active).

What about the AC50 [6] of the same compound?
The AC50 was > 70 µM (inactive).

And the EC50 (Beta-galactosidase [7])?
Its EC50 is > 40 µM (inactive).

What about the AC50 [8] of the same compound?
The AC50 was 7.99 µM (active).

And the IC50 [9]?
Its IC50 is 21.5 µM (active).

And the IC50 (Prothrombin)?
Its IC50 is > 100 µM (inactive).

And the IC50 [10]?
The IC50 was > 32 µM (inactive).

What about the EC50 [11] of the same compound?
Its EC50 is > 32 µM (inactive).

And the IC50 [12]?
The IC50 was > 100 µM (inactive).

And the AC50 [13]?
Its AC50 is 2.54 µM (active).

And the EC50 (Beta-galactosidase [14])?
The EC50 was > 31.5 µM (inactive).

With `CC(=O)NNc1ncnc2c1cnn2-c1ccc(C)cc1` as the compound, how does the IC50 [15] read?
Its IC50 is > 100 µM (inactive).

With `CCN(CC(=O)NC(C)(C)C)Cc1nc(O)c2cc(Br)cc(Br)c2n1` as the compound, how does the IC50 (Beta-galactosidase [16]) read?
Its IC50 is > 66.6 µM (inactive).

And the IC50 [17]?
The IC50 was 15 µM (not active).

What about the IC50 [18] of the same compound?
The IC50 was > 39.8 µM (not active).
